Measurements reported in ChEMBL document CHEMBL5518171, “Curcumin hybrid molecules for the treatment of Alzheimer's disease: Structure and pharmacological activities” (Eur J Med Chem, 2024).

Legend:
[1] = Antioxidant activity assessed as DPPH radical scavenging activity st 80 uM incubated for 1 hr by DPPH assay; assay type: functional
[2] = Antioxidant activity assessed as DPPH radical scavenging activity at 80 uM incubated for 1 hr by DPPH assay relative to control; assay type: functional
SH-SY5Y = assay: Antioxidant activity in human SH-SY5Y cells assessed as increase in intracellular GSH level at 10 uM incubated for 24 hrs by […] staining based fluorescence analysis; assay type: functional
[3] = target: Cholinesterase (Equus caballus) (UniProt P81908); assay: Inhibition of equine BChE at 100 uM by Ellman's method relative to control
Cholinesterase (Equus caballus), sequence (P81908 whole entry): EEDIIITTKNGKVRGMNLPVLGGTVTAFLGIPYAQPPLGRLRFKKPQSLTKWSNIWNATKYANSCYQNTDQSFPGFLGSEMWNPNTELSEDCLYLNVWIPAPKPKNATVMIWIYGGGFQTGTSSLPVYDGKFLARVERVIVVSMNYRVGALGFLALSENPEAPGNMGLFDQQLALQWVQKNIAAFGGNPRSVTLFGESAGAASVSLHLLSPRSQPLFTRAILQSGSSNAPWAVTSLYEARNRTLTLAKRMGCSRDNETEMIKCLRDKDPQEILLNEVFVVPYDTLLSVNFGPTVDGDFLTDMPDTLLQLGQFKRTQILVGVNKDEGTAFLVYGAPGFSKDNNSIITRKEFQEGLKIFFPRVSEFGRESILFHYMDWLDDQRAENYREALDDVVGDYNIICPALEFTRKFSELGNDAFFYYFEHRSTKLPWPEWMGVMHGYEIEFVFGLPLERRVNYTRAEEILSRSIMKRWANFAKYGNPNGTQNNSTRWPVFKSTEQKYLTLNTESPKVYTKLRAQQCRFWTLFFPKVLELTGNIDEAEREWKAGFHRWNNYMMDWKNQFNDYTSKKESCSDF

[4] = target: T1, Amine oxidase [flavin-containing] A (Homo sapiens, UniProt P21397); assay: Inhibition of human MAO-A using p-tyramine as substrate at 100 uM incubated for 15 mins by Amplex red and horseradish peroxidase based fluorescence assay relative to control; conditions: 0.25 h
T1 sequence (P21397 whole entry): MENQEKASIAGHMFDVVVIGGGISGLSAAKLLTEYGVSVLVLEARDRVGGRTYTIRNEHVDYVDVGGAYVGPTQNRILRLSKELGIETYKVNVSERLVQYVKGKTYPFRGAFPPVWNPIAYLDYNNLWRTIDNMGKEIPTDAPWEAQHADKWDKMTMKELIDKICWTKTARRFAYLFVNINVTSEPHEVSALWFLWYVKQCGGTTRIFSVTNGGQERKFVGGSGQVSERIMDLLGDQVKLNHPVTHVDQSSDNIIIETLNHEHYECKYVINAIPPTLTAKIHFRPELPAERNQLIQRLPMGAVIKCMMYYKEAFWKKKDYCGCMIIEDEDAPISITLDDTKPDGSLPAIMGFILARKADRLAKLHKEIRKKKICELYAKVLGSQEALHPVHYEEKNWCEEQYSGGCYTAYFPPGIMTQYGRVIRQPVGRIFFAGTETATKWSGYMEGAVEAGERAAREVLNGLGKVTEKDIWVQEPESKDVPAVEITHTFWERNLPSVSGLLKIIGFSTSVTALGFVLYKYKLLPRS

[5] = target: T2, Amine oxidase [flavin-containing] B (Homo sapiens, UniProt P27338); assay: Inhibition of human MAO-B using p-tyramine as substrate at 100 uM incubated for 15 mins by Amplex red and horseradish peroxidase based fluorescence assay; conditions: 0.25 h
T2 sequence (P27338 whole entry): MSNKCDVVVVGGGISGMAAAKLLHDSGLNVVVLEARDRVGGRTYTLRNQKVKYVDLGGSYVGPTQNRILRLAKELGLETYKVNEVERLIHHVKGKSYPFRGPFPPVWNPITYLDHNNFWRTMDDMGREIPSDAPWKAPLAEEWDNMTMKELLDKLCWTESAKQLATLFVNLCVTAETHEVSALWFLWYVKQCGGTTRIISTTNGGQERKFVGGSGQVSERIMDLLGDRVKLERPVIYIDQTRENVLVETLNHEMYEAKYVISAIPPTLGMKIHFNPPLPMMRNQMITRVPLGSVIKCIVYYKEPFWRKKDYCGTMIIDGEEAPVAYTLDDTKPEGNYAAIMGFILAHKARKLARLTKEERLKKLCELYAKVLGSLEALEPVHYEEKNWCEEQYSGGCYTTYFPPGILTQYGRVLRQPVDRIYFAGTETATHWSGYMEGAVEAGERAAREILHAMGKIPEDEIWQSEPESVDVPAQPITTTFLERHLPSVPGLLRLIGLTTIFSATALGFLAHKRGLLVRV

[6] = Antioxidant activity assessed as ROS scavenging activity; assay type: functional
[7] = Antioxidant activity assessed as DPPH radical scavenging activity by spectrophotometric analysis; assay type: functional
[8] = Neuroprotective activity against human MC65 cells assessed as increase in cell viability incubated for 72 hrs in absence of tetracycline by MTT assay; assay type: functional, cell-based; conditions: MC65, 72 h
[9] = Antioxidant activity assessed as DPPH radical scavenging activity measured after 30 mins by UV-visible spectrophotometric analysis; assay type: functional
N2a = assay: Antiproliferative activity against mouse Neuro2a cells assessed as reduction in cell viability incubated for 72 hrs by MTT assay; assay type: functional, cell-based
Cholinesterase = Cholinesterase (Equus caballus, UniProt P81908); assay: Inhibition of equine BChE using BTCh as substrate incubated for 5 mins by Ellmans method
Cholinesterase, sequence (P81908 whole entry): as the sequence (P81908 whole entry) above

Acetylcholinesterase = Acetylcholinesterase (Electrophorus electricus, UniProt O42275)
Acetylcholinesterase, sequence (O42275 whole entry): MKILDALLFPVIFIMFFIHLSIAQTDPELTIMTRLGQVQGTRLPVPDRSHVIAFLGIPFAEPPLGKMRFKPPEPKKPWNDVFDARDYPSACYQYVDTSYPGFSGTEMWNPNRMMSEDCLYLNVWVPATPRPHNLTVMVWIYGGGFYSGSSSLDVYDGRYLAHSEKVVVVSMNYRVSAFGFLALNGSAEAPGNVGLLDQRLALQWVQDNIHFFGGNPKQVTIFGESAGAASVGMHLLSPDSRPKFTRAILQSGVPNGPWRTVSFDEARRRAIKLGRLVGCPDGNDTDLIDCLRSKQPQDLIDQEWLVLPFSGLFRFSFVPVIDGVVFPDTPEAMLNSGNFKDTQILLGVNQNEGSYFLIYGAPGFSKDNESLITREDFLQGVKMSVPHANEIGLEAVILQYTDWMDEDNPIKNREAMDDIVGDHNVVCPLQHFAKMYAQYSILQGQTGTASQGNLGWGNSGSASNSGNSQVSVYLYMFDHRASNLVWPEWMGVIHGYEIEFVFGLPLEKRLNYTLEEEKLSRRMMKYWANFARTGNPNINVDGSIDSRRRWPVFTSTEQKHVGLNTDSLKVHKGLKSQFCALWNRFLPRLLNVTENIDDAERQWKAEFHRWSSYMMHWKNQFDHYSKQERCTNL
Description: Inhibition of Electric eel AChE using acetylthiocholine iodide as substrate incubated for 15 mins by Ellman's method

Structure (SMILES): COc1cc(/C=C/C(=O)NN=C2CCN(Cc3ccccc3)CC2)ccc1O
- Activity [1]: 53.4%
- Activity [2]: 53.4%
- Activity (SH-SY5Y): 34%

Structure (SMILES): O=C(/C=C/c1cc(O)c(O)cc1O)CC(=O)/C=C/c1cc2ccc(O)c(O)c2oc1=O
- inhibition [3]: 43.3%
- inhibition at 100 µM [4]: 60.9%
- inhibition at 100 µM [5]: 45.8%

Structure (SMILES): CCCCN1C(=O)/C(=C(O)/C=C/c2cc(OC)c(OC)c(OC)c2)C(C(=O)OCC)=C1C
- Activity [6]: 61%

Structure (SMILES): CCCCN1C(=O)/C(=C(O)/C=C/c2ccc(O)c(OC)c2)C(C(=O)OC)=C1C
- Activity [7]: 8.87%

Structure (SMILES): COc1ccc2[nH]cc(CCNC(=O)CC(=O)/C=C/c3ccc(O)c(OC)c3)c2c1
- EC50 [8]: 134 nM

Structure (SMILES): CCCCN1C(=O)/C(=C(O)/C=C/c2cc(OC)c(OC)c(OC)c2)C(C(=O)OC)=C1C
- Activity [9]: 10.8%

Structure (SMILES): O=C(/C=C/c1ccc(O)c(O)c1)NN=C1CCN(Cc2ccccc2)CC1
- Activity [1]: 45%
- Activity [2]: 45%
- Activity (SH-SY5Y): 33%

Structure (SMILES): COc1ccc(/C=C/C(=O)CCCCN2CC[C@@]34C=C[C@H](O)C[C@@H]3Oc3c(OC)ccc(c34)C2)cc1
- IC50 (N2a): 50 µM

Structure (SMILES): COc1cc(/C=C/C(=O)OCCCCCN(C)Cc2cccc(OC(=O)N(C)C)c2)ccc1O
- IC50 (Cholinesterase): 590 nM
- IC50 (Acetylcholinesterase): 19.7 nM

Structure (SMILES): COc1ccc2[nH]cc(CCNC(=O)CC(=O)/C=C/c3ccc(O)cc3)c2c1
- EC50 [8]: 23.1 nM
